# From ChEMBL document CHEMBL1141151, “High-affinity epidermal growth factor receptor (EGFR) irreversible inhibitors with diminished chemical reactivities as positron emission tomography (PET)-imaging agent candidates of EGFR overexpressing tumors” (J Med Chem, 2005)
# Assays:
# [1] = biological target: T1, Epidermal growth factor receptor (Homo sapiens, UniProt P00533); experiment: (§1) Inhibition of EGF Receptor autophosphorylation in A431 cell lysate
# [2] = biological target: T1, Epidermal growth factor receptor; experiment: as §1; remark: listed apart in the source
# [3] = biological target: T1, Epidermal growth factor receptor; experiment: as §1; remark: listed apart in the source
# [4] = biological target: Platelet-derived growth factor receptor (Homo sapiens, UniProt P09619+P16234); experiment: Inhibition of human PDGFR kinase in intact NIHPDGFR cells; format: cell-based
# [5] = biological target: T2, Receptor tyrosine-protein kinase erbB-2 (Homo sapiens, UniProt P04626); experiment: Inhibition of HER2 kinase in intact CSH12 cells; format: cell-based
# [6] = biological target: T1, Epidermal growth factor receptor; conditions: a-431
# Description: Inhibition of EGF Receptor autophosphorylation in A431 cell lysate; Range = 10000-50000 nM
# [7] = biological target: T2, Receptor tyrosine-protein kinase erbB-2; experiment: Inhibition of HER2 kinase in intact CSH12 cells; Range = 25-50 nM; format: cell-based
# T1 sequence (P00533 whole entry): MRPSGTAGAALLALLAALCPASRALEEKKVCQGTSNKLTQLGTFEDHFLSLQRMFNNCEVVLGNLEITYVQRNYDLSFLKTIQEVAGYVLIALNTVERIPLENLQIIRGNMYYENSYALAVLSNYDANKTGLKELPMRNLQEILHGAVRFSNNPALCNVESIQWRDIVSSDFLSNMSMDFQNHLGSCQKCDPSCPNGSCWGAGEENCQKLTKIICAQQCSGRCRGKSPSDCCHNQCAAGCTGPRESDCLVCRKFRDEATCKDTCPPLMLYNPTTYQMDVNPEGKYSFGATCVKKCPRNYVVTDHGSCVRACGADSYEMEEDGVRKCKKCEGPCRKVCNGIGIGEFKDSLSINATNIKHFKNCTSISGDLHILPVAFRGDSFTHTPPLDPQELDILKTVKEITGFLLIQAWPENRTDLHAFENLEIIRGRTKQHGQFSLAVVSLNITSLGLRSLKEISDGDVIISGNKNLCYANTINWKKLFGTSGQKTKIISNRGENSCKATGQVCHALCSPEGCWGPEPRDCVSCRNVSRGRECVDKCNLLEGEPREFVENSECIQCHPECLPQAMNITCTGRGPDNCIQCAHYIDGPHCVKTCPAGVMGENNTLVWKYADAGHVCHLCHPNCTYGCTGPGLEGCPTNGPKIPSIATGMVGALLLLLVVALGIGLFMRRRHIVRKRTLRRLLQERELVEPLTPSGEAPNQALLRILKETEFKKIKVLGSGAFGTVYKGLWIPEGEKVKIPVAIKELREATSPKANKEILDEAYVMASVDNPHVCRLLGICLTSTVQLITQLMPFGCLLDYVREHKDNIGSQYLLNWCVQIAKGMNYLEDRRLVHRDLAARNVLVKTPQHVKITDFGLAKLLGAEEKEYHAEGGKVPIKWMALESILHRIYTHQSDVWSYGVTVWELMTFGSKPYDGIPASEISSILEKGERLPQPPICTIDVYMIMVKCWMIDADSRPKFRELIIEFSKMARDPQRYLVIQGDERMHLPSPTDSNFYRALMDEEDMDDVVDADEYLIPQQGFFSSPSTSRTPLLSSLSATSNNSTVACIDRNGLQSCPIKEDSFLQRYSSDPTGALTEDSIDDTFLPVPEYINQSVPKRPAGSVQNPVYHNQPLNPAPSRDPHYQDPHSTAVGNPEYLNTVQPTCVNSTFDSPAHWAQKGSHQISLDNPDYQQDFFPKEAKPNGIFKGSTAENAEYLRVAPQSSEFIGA
# T2 sequence (P04626 whole entry): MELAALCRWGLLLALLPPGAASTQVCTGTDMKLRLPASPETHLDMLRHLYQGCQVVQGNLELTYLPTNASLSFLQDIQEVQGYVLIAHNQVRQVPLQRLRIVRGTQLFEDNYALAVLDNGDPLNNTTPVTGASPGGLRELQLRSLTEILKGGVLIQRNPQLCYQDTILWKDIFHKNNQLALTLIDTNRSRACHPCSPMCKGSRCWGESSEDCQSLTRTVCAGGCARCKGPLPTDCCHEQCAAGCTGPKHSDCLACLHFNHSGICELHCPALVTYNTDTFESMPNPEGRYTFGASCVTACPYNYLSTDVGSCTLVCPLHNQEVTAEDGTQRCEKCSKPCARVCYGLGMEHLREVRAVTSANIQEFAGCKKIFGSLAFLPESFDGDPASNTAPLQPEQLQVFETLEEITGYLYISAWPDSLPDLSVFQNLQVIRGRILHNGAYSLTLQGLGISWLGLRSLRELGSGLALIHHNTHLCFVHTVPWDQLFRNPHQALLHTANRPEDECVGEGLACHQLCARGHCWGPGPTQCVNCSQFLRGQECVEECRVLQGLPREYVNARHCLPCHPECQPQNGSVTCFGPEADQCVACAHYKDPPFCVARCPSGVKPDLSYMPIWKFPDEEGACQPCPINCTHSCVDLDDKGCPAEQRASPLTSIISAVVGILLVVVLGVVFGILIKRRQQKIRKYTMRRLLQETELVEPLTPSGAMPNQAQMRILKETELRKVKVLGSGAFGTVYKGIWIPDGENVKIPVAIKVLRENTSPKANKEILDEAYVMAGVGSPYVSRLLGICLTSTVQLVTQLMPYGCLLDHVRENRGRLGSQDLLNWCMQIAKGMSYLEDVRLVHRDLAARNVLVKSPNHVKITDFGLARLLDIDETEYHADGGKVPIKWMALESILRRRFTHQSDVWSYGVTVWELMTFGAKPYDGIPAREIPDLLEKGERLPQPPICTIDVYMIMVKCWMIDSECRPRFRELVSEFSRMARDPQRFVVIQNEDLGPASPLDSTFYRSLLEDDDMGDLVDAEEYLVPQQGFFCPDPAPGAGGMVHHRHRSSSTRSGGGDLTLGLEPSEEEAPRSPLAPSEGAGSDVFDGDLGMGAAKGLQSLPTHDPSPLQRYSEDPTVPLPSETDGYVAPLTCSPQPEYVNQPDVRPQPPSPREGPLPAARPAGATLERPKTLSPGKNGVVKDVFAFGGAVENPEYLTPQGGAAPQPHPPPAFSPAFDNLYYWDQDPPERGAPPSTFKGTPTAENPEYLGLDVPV
SMILES,IC50 [2],IC50 [3],IC50 [4],further results
CN(C)C/C=C/C(=O)Nc1ccc2ncnc(Nc3cccc(I)c3)c2c1,< 5 nM,0.94 nM,,IC50 [1]: < 5 nM
CN(C)C/C=C/C(=O)Nc1ccc2ncnc(Nc3cc(Cl)c(Cl)cc3F)c2c1,,,> 1000 nM,
COCC(=O)Nc1ccc2ncnc(Nc3cccc(I)c3)c2c1,50000 nM,150 nM,,
COCC(=O)Nc1ccc2ncnc(Nc3cc(Cl)c(Cl)cc3F)c2c1,,252 nM,> 1000 nM,IC50 [5]: > 500 nM; IC50 [6]: 50000 nM
O=C(CCl)Nc1ccc2ncnc(Nc3cc(Cl)c(Cl)cc3F)c2c1,,0.07 nM,> 1000 nM,IC50 [7]: 50 nM
C=CC(=O)Nc1cc2c(Nc3cccc(Br)c3)ncnc2cc1N1CCN(C)CC1,> 500 nM,,,
C=CC(=O)Nc1cc2c(Nc3cc(Cl)c(Cl)cc3F)ncnc2cc1N1CCN(C)CC1,> 500 nM,6000 nM,,IC50 [1]: 250 nM
COc1cc2ncnc(Nc3cc(Cl)c(Cl)cc3F)c2cc1OC,,0.208 nM,,
